Source: BindingDB's records for doi:10.1016/s0960-894x(02)00137-3 (Kingston University, 2002)

These compounds were tested against T1, Steryl-sulfatase (Homo sapiens, UniProt P08842) (assay: ChEBML_68022).
T1 sequence (P08842 whole entry): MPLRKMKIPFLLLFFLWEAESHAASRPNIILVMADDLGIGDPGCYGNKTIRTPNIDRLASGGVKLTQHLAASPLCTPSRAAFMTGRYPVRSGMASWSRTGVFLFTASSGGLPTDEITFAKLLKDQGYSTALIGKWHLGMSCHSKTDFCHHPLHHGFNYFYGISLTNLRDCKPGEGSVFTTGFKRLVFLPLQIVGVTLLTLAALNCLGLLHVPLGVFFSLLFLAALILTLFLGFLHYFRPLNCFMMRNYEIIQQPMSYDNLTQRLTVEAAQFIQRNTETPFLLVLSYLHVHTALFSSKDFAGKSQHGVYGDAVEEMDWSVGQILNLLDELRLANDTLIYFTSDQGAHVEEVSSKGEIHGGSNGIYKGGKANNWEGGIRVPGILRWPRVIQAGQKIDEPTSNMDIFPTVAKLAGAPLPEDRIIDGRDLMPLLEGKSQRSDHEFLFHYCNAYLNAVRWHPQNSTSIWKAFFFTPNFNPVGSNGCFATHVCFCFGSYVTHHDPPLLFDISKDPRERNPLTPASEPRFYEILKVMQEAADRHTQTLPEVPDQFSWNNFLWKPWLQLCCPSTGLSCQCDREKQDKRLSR
Text: In vitro inhibition of estrone sulfatase.

IC50 [µM]	SMILES
> 10000	NS(=O)(=O)Oc1ccccc1
120	NS(=O)(=O)Oc1cccc(I)c1 [Sulfamic acid 3-iodo-phenyl ester]
537	NS(=O)(=O)Oc1ccc(F)cc1 [4-fluorophenyl sulfamate]
560	NS(=O)(=O)Oc1ccc(I)cc1 [Sulfamic acid 4-iodo-phenyl ester]
> 10000	Cc1ccc(OS(N)(=O)=O)cc1 [Sulfamic acid p-tolyl ester]
2090	Cc1cccc(OS(N)(=O)=O)c1 [Sulfamic acid m-tolyl ester]

SMILES	IC50 [µM]
NS(=O)(=O)OCC(Cl)(Cl)Cl [Sulfamic acid 2,2,2-trichloro-ethyl ester]	750
